Data as given in patent US11752156B2, “Compositions and methods for treating hyperproliferative skin disorders” (Athenex HK Innovative Limited, priority 2018, dated 2023).
Values joined by “and” are separate entries in the source; they are usually repeats but may differ in a detail not shown here. Equal entries are not always repeated. Where two headings read alike, the source gives them in different places.

Experiments:
apoptosis by G2/M arrest = conditions: cited from earlier work
[1] = tested on: CCD 1106 KERTr human keratinocyte cell line; assay: MTT cell proliferation assay, 72 hours, dark or blue light, keratinocytes; format: cell-based; conditions: for inhibition at 0.01 µM / inhibition at 0.02 µM / inhibition at 0.04 µM / inhibition at 0.08 µM: Homo sapiens, read-out: growth inhibition relative to untreated control
Protocol: The effects of combined treatment with KX01, a vitamin D derivative, and/or blue/UV light exposure were characterized using a cell proliferation assay. Cell proliferation was assessed by using an MTT assay. Cells were seeded in 96-well plate (3,000-5,000 cells per well) and treated with test compounds at varying concentrations (e.g. KX01: 5 to 80 nM; calcipotriol 5 to 1,280 nM) for 72 hours, either in the dark or exposed to blue light irradiation (for 2, 4, or 6 hours). To each well, 10 μl of 3-(4,5-dimethylthiazol-2-yl)-2,5-diphenyltetrazolium bromide (MTT) (RPI Corporation™) solution (5 mg/ml in PBS) was added and incubated at 37° C. for 3 hours. Next, 100 μl of 20% SDS was added to each well. After overnight incubation at 37° C., the absorbance in each well was measured at 570 nm in a microplate reader (Molecular Devices™). The cell growth curve and GI50s were calculate using GraphPad Prism™ 5 software. Tables 13 and 14 show the results of cell growth inhibition studies (expressed as a percentage relative to control cell growth) for treatment with either KX01 or calcipotriol in combination with exposure to blue light. […] The percentage of growth inhibition relative to untreated control is shown. […] The percentage of growth inhibition relative to untreated control is shown. Tables 15 to 18 show the effects of combined treatment with KX01, calcipotriol, and exposure to blue light at 0 hours, 2 hours, 4 hours, and 6 hours of light exposure (respectively). Values are expressed as the percentage of growth inhibition relative to cells grown under control conditions (0 hours blue light, [KX01]=0, [calcipotriol]=0). […] Results are shown below in Tables 27 to Table 30, which show results from 0, 2, 4, and 6 hours of blue light exposure (respectively). Values are expressed as the percentage of growth inhibition relative to cells grown under control conditions (0 hours blue light, [KX01]=0, [calcipotriol]=0).

CCD-1106 KERTr cells = assay: FITC annexin V / PI apoptosis assay by flow cytometry, 24 hours; format: cell-based, human; conditions: 24 hours
Protocol: In addition to growth inhibition, Inventors also investigated the effect of KX01 on apoptosis in keratinocytes. CCD-1106 KERTr cells (1×10^6) were seeded in 60 mm dishes and treated with test compounds at varying concentrations (e.g. KX01: 20 to 500 nM; calcipotriol 50 to 1000 nM) for 24 hours. Cell apoptosis was assessed by using a FITC annexin V apoptosis detection kit (BD Biosciences™) according to manufacturer's instruction. Briefly, cells were collected in 1× binding buffer and incubated with fluorescein isothiocyanate (FITC)-conjugated annexin V and propidium iodide (PI) for 15 minutes at room temperature in the dark, followed by flow cytometry analysis using a LSRFortessa™ flow cytometer (BD Biosciences™).

[2] = tested on: human keratinocyte cell line; assay: inhibition of human keratinocyte growth, individual dose response, 72 hours, MTT assay; format: cell-based; conditions: 72 hour exposure
Protocol: FIG. 4: Inhibition of human keratinocyte growth versus KX01 concentration (treatment duration: 72 hours; cell growth measured using the MTT assay). […] FIG. 5: Inhibition of human keratinocyte growth versus calcipotriol concentration (treatment duration: 72 hours; cell growth measured using the MTT assay). […] A human keratinocyte cell line was used in these studies.

tubulin polymerization = conditions: cited from earlier work
SRC-kinase = SRC-kinase (Homo sapiens, UniProt P12931); conditions: cited from earlier work
Chain of SRC-kinase (P12931 whole entry): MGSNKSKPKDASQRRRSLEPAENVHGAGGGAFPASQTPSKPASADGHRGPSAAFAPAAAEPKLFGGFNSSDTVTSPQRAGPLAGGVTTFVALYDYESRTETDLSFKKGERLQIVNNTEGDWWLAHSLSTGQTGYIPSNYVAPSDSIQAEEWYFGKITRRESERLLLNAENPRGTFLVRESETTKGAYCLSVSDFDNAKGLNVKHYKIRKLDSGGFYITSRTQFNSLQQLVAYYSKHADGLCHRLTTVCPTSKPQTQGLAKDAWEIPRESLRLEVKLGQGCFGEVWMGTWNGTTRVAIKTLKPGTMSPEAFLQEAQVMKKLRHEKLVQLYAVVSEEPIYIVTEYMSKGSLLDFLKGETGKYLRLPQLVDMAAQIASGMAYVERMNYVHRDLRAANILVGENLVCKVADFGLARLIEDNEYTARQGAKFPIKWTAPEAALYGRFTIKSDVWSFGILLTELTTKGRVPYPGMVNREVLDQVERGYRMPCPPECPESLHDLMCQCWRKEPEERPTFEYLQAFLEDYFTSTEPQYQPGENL

[3] = tested on: cell proliferation/growth; assay: combined treatment with KX01 and tazarotene, inhibition of cell proliferation/growth; format: cell-based
Source text: Examples of suitable retinoids include retinol, retinal, retinoic acid isotretinoin, alitreninoin, etretinate, acitretin, adapalene, bexarotene, and/or tazarotene. FIGS. 7 and 8 show the effects of tazarotene on growth of cells in culture, including CCD-1106 KERTr keratinocytes (FIG. 7) and A431 cells (epidermoid cells obtained from a human squamous cell carcinoma, FIG. 8).

[4] = tested on: human keratinocyte cell line; assay: combinatorial dose response surface study of cell viability (PSI), KX01 and calcipotriol; format: cell-based; conditions: model estimate
Source text: FIG. 6: Dose response surface of cell viability versus calcipotriol concentration versus KX01 concentration. Synergistic combinations of calcipotriol and KX01 are below the surface of additivity (indicating enhanced inhibition of growth), and antagonistic combinations are above the surface of additivity (indicative of reduced inhibition of growth). Individual dose response curves for KX01 and calcipotriol as determined above can be used to generate dose response surfaces representative of the additive effects of these compounds on keratinocyte growth. […] A PSI value of 1 corresponds to an additive effect. A PSI value of less than 1 indicates a synergistic effect, and a PSI value of greater than 1 indicates an antagonistic effect. Cell viability was measured in a number of experiments. In Experiment 1, the concentrations of calcipotriol were: 0, 3, 9, 27, 81, and 243 nM, and the concentrations of KX01 were: 0, 5, 10, 20, 40, 60, 80, and 160 nM. In Experiment 2, the concentrations of calcipotriol were: 0, 5, 10, 20, 40, 80, 160, 320, and 1280 nM, and the concentrations of KX01 were: 1, 3, 9, 27, and 81 nM. […] It is notable that unexpected synergy is observed across a range of concentrations and combinations. Tables 7, 8, and 9 show the results for determination of individual IC50 and maximum inhibitory concentration values for KX01 and calcipotriol, as well as the PSI value for the drug combination. […]

O=C(Cc1ccc(-c2ccc(OCCN3CCOCC3)cc2)cn1)NCc1ccccc1 [KX01, N-benzyl-2-(5-{4-[2-(morpholine-4-yl)ethoxy]phenyl}pyridine-2-yl)acetamide]
induction of apoptosis (apoptosis by G2/M arrest): induces apoptosis by G2/M arrest
inhibition at 0.01 µM ([1]; CCD-1106, 2 h, KX01 10 nM, blue light 2 h): 27%
inhibition at 0.02 µM ([1]; CCD-1106, 2 h, KX01 20 nM, blue light 2 h): 63%
inhibition at 0.04 µM ([1]; CCD-1106, 2 h, KX01 40 nM, blue light 2 h): 92%
inhibition at 0.01 µM ([1]; CCD-1106, 4 h, KX01 10 nM, blue light 4 h): 47%
inhibition at 0.02 µM ([1]; CCD-1106, 4 h, KX01 20 nM, blue light 4 h): 64%
inhibition at 0.04 µM ([1]; CCD-1106, 4 h, KX01 40 nM, blue light 4 h): 87%
inhibition at 0.08 µM ([1]; CCD-1106, 4 h, KX01 80 nM, blue light 4 h): 92%
inhibition at 0.01 µM ([1]; CCD-1106, 6 h, KX01 10 nM, blue light 6 h): 56%
inhibition at 0.02 µM ([1]; CCD-1106, 6 h, KX01 20 nM, blue light 6 h): 70%
inhibition at 0.04 µM ([1]; CCD-1106, 6 h, KX01 40 nM, blue light 6 h): 88%
inhibition at 0.08 µM ([1]; CCD-1106, 6 h, KX01 80 nM, blue light 6 h): 87%
growth inhibition relative to untreated control ([1]; KX01 10 nM, blue light 0 h): 4% and 9% and 6%
growth inhibition relative to untreated control ([1]; KX01 10 nM, blue light 2 h): 32% and 34%
growth inhibition relative to untreated control ([1]; KX01 10 nM, blue light 4 h): 50%
growth inhibition relative to untreated control ([1]; KX01 10 nM, blue light 6 h): 62% and 57%
growth inhibition relative to untreated control ([1]; KX01 20 nM, blue light 0 h): 49%
growth inhibition relative to untreated control ([1]; KX01 20 nM, blue light 2 h): 74% and 68%
growth inhibition relative to untreated control ([1]; KX01 20 nM, blue light 4 h): 69% and 68%
growth inhibition relative to untreated control ([1]; KX01 20 nM, blue light 6 h): 67% and 73%
growth inhibition relative to untreated control ([1]; KX01 40 nM, blue light 0 h): 90% and 45%
growth inhibition relative to untreated control ([1]; KX01 40 nM, blue light 2 h): 98% and 91%
growth inhibition relative to untreated control ([1]; KX01 40 nM, blue light 4 h): 86%
growth inhibition relative to untreated control ([1]; KX01 40 nM, blue light 6 h): 84%
growth inhibition relative to untreated control ([1]; KX01 80 nM, blue light 0 h): 96% and 48% and 95%
growth inhibition relative to untreated control ([1]; KX01 80 nM, blue light 4 h): 93% and 90%
growth inhibition relative to untreated control ([1]; KX01 80 nM, blue light 6 h): 83%
effect of blue light exposure with the drug on cell growth inhibition ([1]; for example 6 hours of blue light with 10 nm KX01): Synergistic effects
late apoptic cells (CCD-1106 KERTr cells; KX01 20 nM): 2.09%
late apoptic cells (CCD-1106 KERTr cells; KX01 40 nM): 3.50%
late apoptic cells (CCD-1106 KERTr cells; KX01 100 nM): 6.33%
late apoptic cells (CCD-1106 KERTr cells; KX01 500 nM): 4.34%
IC50 [2]: 41.9 nM
inhibition of tubulin polymerization (tubulin polymerization): inhibits tubulin polymerization
SRC-kinase inhibition (SRC-kinase): inhibit SRC-kinase
H [3]: 3.3
IC50 [3]: 45 nM
Imax [3]: 0.92
IC50 ([4]; Homo sapiens, Keratinocyte): 41.3 nM
IC50 [4]: 32.8 nM and 47 nM
Max Inhibition [4]: 0.856 and 0.77 and 0.741
